Reference: ChEMBL document CHEMBL1909046, “DrugMatrix in vitro pharmacology data”

What was measured:
[1] = target: T1, Alpha-2A adrenergic receptor (Homo sapiens, UniProt P08913); type: cell membranes, Sf9, Membrane; conditions: sf9; also: in other assays of this panel Not Active means under 50% inhibition at 10 µM
T1 sequence (P08913 whole entry): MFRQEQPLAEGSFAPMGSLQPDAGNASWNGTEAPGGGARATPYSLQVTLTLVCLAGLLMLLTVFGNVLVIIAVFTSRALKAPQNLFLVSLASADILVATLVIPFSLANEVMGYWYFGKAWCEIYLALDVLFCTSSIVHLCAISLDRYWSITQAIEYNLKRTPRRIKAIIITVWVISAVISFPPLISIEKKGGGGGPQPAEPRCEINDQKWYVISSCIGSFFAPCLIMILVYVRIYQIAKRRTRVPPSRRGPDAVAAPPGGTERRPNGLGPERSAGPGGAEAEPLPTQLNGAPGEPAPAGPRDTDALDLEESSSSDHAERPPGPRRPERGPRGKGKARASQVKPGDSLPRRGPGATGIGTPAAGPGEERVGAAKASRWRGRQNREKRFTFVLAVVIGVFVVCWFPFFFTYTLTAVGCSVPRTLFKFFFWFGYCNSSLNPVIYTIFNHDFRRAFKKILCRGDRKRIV

[2] = target: Beta-2 adrenergic receptor (Homo sapiens, UniProt P07550); test: DRUGMATRIX: Adrenergic beta2 radioligand binding (ligand: [3H] CGP-12177); type: cell membranes, Membrane; conditions: cho; Not Active = under 50% inhibition at 10 µM
[3] = target: Aldo-keto reductase family 1 member B1 (Rattus norvegicus, UniProt P07943); type: tissue-based, Lens of camera-type eye;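 also: inhibition of aldose reductase enzyme activity, measured with DL-glyceraldehyde as the substrate; in other assays of this panel Not Active means under 50% inhibition at 10 µM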
[4] = DRUGMATRIX: Atrial Natriuretic Factor (ANF) radioligand binding (ligand: [125I] ANF (rat)); type: cell membranes, Cavia porcellus, Dunkin-Hartley, Adrenal gland, Membrane; conditions: Not Active = under 50% inhibition at 10 µM
[5] = DRUGMATRIX: beta-Lactamase enzyme inhibition (substrate: Nitrocefin); parameters: species or system Bacillus cereus; conditions: Not Active = under 50% inhibition at 10 µM
[6] = DRUGMATRIX: Calcium Channel Type L, Dihydropyridine radioligand binding (ligand: [3H] Nitrendipine); type: cell membranes, Rattus norvegicus, Wistar, Cerebral cortex, Membrane; conditions: Not Active = under 50% inhibition at 10 µM
[7] = target: 5-hydroxytryptamine receptor 2B (Homo sapiens, UniProt P41595); type: cell membranes, CHO-K1, Membrane; conditions: cho-k1; also: in other assays of this panel Not Active means under 50% inhibition at 10 µM
Sequence of 5-hydroxytryptamine receptor 2B (P41595 whole entry): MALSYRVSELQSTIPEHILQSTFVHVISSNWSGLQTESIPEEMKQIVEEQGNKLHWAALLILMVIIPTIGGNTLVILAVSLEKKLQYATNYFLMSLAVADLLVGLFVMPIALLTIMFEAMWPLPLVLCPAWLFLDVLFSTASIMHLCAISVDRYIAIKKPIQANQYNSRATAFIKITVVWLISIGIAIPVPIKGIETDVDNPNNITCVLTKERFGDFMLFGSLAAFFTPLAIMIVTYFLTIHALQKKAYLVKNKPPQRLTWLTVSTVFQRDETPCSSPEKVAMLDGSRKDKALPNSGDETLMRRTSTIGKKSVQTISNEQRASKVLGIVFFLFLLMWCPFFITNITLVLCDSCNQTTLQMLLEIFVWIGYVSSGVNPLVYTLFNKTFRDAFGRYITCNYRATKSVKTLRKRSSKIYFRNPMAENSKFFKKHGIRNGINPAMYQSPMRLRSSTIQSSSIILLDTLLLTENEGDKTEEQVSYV

Substance-P receptor = Substance-P receptor (Homo sapiens, UniProt P25103); type: cell membranes, CHO, Membrane; conditions: cho; also: in other assays of this panel Not Active means under 50% inhibition at 10 µM
Sequence of Substance-P receptor (P25103 whole entry): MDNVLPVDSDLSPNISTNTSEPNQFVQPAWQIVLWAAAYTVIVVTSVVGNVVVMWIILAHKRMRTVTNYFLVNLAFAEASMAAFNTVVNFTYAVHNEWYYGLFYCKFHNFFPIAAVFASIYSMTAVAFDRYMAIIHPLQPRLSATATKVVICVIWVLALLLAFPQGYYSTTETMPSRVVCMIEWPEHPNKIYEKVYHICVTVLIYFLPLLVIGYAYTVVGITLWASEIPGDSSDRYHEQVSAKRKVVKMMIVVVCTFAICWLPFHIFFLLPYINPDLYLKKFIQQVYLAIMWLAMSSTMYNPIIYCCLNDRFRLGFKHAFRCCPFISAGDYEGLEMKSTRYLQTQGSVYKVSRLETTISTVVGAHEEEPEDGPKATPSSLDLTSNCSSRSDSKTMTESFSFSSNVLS

[8] = target: Vascular endothelial growth factor receptor 1 (Homo sapiens, UniProt P17948); type: cell-based; conditions: huvec; also: in other assays of this panel Not Active means under 50% inhibition at 10 µM
Sequence of Vascular endothelial growth factor receptor 1 (P17948 whole entry): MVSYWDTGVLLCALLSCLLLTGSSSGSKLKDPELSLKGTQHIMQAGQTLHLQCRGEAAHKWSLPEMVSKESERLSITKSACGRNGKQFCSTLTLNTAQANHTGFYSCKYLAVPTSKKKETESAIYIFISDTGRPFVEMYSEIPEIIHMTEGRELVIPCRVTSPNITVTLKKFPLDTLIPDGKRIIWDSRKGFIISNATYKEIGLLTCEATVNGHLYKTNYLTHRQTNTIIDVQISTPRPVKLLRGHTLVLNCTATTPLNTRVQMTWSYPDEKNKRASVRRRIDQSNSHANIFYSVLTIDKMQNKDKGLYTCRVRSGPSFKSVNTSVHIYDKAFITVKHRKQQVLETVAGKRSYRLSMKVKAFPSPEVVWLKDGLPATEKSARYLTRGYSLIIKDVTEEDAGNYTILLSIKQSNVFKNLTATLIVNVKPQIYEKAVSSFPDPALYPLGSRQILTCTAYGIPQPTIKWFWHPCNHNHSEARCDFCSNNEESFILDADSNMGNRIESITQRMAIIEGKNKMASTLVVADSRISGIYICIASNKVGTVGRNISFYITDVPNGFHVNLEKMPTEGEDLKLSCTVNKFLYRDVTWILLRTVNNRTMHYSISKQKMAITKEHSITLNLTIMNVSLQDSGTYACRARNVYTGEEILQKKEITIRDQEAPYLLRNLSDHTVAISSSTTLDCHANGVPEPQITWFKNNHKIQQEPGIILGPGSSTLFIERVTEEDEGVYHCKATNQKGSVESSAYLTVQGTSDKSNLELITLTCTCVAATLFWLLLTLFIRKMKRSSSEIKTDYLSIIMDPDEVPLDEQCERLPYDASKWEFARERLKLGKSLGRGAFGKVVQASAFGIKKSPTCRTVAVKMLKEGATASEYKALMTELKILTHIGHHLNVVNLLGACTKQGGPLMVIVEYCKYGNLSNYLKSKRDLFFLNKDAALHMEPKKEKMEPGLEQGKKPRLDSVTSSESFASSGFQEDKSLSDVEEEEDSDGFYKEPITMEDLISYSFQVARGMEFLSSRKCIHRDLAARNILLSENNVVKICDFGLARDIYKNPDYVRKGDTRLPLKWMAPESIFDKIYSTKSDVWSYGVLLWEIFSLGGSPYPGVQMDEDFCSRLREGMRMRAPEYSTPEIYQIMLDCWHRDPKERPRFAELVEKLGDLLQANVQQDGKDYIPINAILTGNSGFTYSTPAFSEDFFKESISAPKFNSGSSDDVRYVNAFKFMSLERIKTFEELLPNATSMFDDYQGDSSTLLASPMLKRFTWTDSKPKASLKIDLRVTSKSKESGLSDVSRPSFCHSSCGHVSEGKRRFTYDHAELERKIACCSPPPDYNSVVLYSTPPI

[9] = target: C-C chemokine receptor type 5 (Homo sapiens, UniProt P51681); type: cell membranes, Membrane; conditions: hek293; also: in other assays of this panel Not Active means under 50% inhibition at 10 µM
Sequence of C-C chemokine receptor type 5 (P51681 whole entry): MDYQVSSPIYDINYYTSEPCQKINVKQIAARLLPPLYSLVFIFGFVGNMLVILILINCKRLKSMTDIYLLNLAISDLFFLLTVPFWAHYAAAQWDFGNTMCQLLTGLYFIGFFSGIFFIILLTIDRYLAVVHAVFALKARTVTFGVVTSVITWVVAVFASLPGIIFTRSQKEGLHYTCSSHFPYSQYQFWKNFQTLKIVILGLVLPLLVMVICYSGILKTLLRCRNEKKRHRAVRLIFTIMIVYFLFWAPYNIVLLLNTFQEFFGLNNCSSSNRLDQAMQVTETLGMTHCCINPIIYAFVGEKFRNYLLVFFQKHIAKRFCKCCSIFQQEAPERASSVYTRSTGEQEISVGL

[10] = target: T2, Cholecystokinin receptor type A (Homo sapiens, UniProt P32238); type: cell membranes, Membrane; conditions: 1321-n1; also: in other assays of this panel Not Active means under 50% inhibition at 10 µM
T2 sequence (P32238 whole entry): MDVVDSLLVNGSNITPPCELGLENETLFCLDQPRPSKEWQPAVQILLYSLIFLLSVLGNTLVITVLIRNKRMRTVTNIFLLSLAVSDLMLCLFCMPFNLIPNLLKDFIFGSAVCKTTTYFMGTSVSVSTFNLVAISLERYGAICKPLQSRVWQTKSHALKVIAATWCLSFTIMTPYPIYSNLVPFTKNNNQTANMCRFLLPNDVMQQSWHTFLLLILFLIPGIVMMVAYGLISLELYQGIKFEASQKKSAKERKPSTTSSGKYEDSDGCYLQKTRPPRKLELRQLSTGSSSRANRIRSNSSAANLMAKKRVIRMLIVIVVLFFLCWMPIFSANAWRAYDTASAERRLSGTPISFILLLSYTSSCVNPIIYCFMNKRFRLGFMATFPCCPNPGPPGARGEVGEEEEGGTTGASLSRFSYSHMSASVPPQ

D(1A) dopamine receptor = D(1A) dopamine receptor (Homo sapiens, UniProt P21728); test: DRUGMATRIX: Dopamine D1 radioligand binding (ligand: [3H] SCH-23390); type: cell membranes, CHO, Membrane; conditions: cho, Not Active = under 50% inhibition at 10 µM
Sequence of D(1A) dopamine receptor (P21728 whole entry): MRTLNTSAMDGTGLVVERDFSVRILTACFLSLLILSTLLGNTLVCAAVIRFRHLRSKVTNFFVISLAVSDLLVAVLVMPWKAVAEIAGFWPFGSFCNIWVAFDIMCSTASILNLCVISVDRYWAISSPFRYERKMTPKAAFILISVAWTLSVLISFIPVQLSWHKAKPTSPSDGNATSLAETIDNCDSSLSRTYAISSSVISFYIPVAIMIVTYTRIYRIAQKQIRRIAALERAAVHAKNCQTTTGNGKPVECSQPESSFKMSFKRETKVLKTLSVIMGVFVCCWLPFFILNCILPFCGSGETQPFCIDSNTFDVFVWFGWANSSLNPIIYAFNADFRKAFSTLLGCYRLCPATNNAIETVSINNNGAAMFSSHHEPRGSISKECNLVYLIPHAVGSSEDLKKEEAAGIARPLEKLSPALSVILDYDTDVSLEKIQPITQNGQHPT

D(3) dopamine receptor = D(3) dopamine receptor (Homo sapiens, UniProt P35462); test: DRUGMATRIX: Dopamine D3 radioligand binding (ligand: [3H] Spiperone); type: cell membranes, CHO, Membrane; conditions: cho
Sequence of D(3) dopamine receptor (P35462 whole entry): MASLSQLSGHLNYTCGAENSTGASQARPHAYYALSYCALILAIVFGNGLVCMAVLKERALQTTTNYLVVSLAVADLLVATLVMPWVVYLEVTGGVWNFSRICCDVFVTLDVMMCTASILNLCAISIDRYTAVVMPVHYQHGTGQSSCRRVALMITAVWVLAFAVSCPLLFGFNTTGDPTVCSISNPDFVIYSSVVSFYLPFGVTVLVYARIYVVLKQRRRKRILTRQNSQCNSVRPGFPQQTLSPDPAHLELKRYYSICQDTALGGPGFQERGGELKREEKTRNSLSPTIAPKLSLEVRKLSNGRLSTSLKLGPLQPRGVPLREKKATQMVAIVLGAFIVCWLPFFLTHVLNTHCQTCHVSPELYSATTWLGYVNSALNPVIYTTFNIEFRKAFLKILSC

[11] = DRUGMATRIX: Glutamate, AMPA radioligand binding (ligand: [3H] AMPA); type: cell membranes, Rattus norvegicus, Wistar, Cerebral cortex, Membrane; conditions: Not Active = under 50% inhibition at 10 µM
[12] = target: T3, Polyunsaturated fatty acid lipoxygenase ALOX15 (Oryctolagus cuniculus, UniProt P12530); test: biochemical; type: tissue-based, Reticulocytes; conditions: reticulocytes
T3 sequence (P12530 whole entry): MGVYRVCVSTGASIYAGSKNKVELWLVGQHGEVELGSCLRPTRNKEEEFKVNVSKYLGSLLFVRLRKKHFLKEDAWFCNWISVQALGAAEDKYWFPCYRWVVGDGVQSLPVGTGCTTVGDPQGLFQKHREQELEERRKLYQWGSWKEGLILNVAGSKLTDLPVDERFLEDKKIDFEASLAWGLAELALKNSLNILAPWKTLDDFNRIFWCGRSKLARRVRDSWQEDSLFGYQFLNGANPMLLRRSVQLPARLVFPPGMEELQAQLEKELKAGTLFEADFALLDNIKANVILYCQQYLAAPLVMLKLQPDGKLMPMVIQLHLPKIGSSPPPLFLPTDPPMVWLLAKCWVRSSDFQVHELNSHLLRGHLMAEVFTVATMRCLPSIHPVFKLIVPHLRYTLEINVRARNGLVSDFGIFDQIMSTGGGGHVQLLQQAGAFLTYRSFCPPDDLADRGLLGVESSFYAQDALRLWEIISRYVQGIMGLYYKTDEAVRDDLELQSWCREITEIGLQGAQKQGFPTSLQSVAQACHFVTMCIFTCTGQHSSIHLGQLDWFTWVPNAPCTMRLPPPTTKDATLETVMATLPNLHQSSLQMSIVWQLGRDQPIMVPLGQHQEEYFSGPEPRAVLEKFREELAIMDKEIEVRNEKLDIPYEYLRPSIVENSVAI

[13] = target: Mitogen-activated protein kinase 14 (Homo sapiens, UniProt Q16539); parameters: species or system Escherichia coli
Sequence of Mitogen-activated protein kinase 14 (Q16539 whole entry): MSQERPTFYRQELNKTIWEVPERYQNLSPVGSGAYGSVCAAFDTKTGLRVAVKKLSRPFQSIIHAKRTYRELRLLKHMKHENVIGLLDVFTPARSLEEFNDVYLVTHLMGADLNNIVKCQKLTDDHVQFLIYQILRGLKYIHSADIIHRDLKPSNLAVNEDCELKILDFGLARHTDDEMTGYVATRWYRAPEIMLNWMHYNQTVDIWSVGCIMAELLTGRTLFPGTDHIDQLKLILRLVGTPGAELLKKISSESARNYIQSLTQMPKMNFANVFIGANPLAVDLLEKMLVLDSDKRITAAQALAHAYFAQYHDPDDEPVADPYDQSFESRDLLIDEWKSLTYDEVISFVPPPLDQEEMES

Adenosine receptor A1 = target: T4, Adenosine receptor A1 (Homo sapiens, UniProt P30542); type: cell membranes, CHO, Membrane; conditions: cho
T4 sequence (P30542 whole entry): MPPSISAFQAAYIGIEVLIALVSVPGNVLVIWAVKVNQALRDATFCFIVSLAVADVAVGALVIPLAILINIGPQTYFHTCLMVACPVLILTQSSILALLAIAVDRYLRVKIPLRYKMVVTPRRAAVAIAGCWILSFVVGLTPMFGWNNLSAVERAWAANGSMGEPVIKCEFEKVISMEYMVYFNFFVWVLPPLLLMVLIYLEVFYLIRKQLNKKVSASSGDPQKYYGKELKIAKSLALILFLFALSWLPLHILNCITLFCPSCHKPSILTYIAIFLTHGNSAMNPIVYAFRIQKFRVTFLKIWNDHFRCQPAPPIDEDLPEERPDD

| Molecule | IC50 [2] | IC50 [3] | IC50 [4] | Ki [4] | IC50 [5] | Ki [5] | IC50 [6] | Ki [6] | IC50 [7] | IC50 (Substance-P receptor) | IC50 [8] | IC50 [9] | IC50 [10] | IC50 [11] | Ki [11] | IC50 [12] | IC50 [13] | IC50 (Adenosine receptor A1) | IC50 [1] | IC50 (D(1A) dopamine receptor) | further results |
| --- | --- | --- | --- | --- | --- | --- | --- | --- | --- | --- | --- | --- | --- | --- | --- | --- | --- | --- | --- | --- | --- |
| IVERMECTIN | Not Active | Not Active | Not Active | Not Active | Not Active | Not Active | Not Active | Not Active | Not Active | Not Active | Not Active | Not Active | Not Active | Not Active | Not Active | Not Active | Not Active | Not Active |  |  | IC50 ([1]; read-out: IC50): 5840 nM; Ki ([1]; read-out: Ki): 2190 nM; Ki [2]: Not Active; Ki [3]: Not Active; Ki [7]: Not Active; Ki (Substance-P receptor): Not Active; Ki [8]: Not Active; Ki [9]: Not Active; Ki [10]: Not Active; IC50 (D(1A) dopamine receptor; read-out: IC50): 4510 nM; Ki (D(1A) dopamine receptor; read-out: Ki): 2260 nM; IC50 (D(3) dopamine receptor; read-out: IC50): 2210 nM; Ki (D(3) dopamine receptor; read-out: Ki): 750 nM; Ki [12]: Not Active; Ki [13]: Not Active; Ki (Adenosine receptor A1): Not Active |
| NC(=O)c1ncn([C@@H]2O[C@H](CO)[C@@H](O)[C@H]2O)n1 [RIBAVIRIN] | Not Active | Not Active | Not Active | Not Active | Not Active | Not Active | Not Active | Not Active | Not Active | Not Active | Not Active | Not Active | Not Active | Not Active | Not Active | Not Active | Not Active | Not Active | Not Active | Not Active | IC50 (D(3) dopamine receptor): Not Active |
| Nc1nnc(-c2cccc(Cl)c2Cl)c(N)n1 [LAMOTRIGINE] | Not Active | Not Active | Not Active | Not Active | Not Active | Not Active | Not Active | Not Active | Not Active | Not Active | Not Active | Not Active | Not Active | Not Active | Not Active | Not Active | Not Active | Not Active | Not Active | Not Active | IC50 (D(3) dopamine receptor): Not Active |
| NNC(=O)c1ccncc1 [ISONIAZID] | Not Active | Not Active | Not Active | Not Active | Not Active | Not Active | Not Active | Not Active | Not Active | Not Active | Not Active | Not Active | Not Active | Not Active | Not Active | Not Active | Not Active | Not Active | Not Active | Not Active | IC50 (D(3) dopamine receptor): Not Active |
